Source: patent US20110288082A1, “METHODS AND COMPOSITIONS FOR INHIBITION OF THE TRANSITIONAL ENDOPLASMIC RETICULUM ATPASE” (priority 2010, published 2011)
Where two headings read alike, the source gives them in different places.

What was measured:
[1] = biological target: p97 (Homo sapiens, UniProt P55072); assay: p97 ATPase assay (Kinase Glo Plus; biomol green for compounds that interfere with luciferase); type: biochemical
How it was run: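 Purified p97 in 50 mM Tris pH 7.4, 20 mM MgCl2, 1 mM EDTA, 0.5 mM TCEP, preincubated 10 min with compound (0–30 μM, triplicate), then ATP 60 min at room temperature. Remaining ATP read by Kinase Glo Plus luminescence, or biomol green at 630 nm for luciferase-interfering compounds; % activity versus DMSO and no-enzyme controls, mean ± SE.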

[2] = system: p97-dependent Ub^G76V-GFP degradation in HeLa cells; assay: Ub^G76V-GFP degradation (turn-over) assay; type: cell-based, human; conditions: Homo sapiens, HeLa
How it was run: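 HeLa cells expressing Ub^G76V-GFP were imaged, and mean GFP intensity per cell area was taken over 300-500 cells, background-subtracted and normalized to DMSO-treated basal intensity. The degradation rate constant k with compound is expressed as percent of the DMSO control k.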

[3] = purified p97, ATP, 60 min room temperature, mean +/- standard error
[4] = read-out: IC50 (μM) Ub^G76V-GFP turn over, Ub^G76V-GFP-expressing HeLa cells, degradation rate constant k from 90 to 180 min, mean +/- standard error
[5] = read-out: IC50 (μM) Ub^G76V-GFP turn over, p97-dependent Ub^G76V-GFP degradation turn-over assay

Sequence of p97 (P55072 2-806 limits assumed): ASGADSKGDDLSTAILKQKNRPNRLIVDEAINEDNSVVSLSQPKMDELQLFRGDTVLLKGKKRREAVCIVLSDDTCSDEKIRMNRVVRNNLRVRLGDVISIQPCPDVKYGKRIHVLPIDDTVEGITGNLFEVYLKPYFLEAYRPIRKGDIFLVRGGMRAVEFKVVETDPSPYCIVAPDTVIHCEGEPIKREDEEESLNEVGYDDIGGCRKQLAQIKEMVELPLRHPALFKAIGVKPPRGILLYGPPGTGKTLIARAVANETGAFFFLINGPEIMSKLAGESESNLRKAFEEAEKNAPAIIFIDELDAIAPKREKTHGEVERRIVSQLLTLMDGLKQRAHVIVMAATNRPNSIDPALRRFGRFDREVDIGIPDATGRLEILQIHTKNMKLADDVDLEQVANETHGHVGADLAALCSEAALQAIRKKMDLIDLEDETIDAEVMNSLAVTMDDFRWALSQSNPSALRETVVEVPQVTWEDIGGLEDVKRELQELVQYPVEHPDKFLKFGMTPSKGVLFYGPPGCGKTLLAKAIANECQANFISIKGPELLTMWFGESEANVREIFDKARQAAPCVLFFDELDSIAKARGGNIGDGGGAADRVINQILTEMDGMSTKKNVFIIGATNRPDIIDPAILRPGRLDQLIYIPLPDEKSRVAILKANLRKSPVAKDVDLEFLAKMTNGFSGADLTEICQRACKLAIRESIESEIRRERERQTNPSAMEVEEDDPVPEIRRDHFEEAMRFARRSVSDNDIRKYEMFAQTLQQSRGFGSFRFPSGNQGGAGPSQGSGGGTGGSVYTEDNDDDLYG

| SMILES | IC50 [1, 3] [µM] | IC50 [2, 4] [µM] | IC50 ([1]; p97 ATPase assay) [µM] | IC50 [2, 5] [µM] |
| --- | --- | --- | --- | --- |
| Cc1nc(N2CCOc3ccccc32)nc(NCc2ccccc2)c1C [X] | 1.1 ± 0.2 | 10 ± 1 |  |  |
| Cc1c(F)cccc1Nc1nc(NCc2ccccc2)c2ccccc2n1 [V-2] | 0.9 ± 0.1 | 3.7 ± 0.8 |  |  |
| CCN(CC)CCOc1cccc2c(NCc3ccccc3)nc(N3CCOc4ccccc43)nc12 [VII-10] | 0.4 ± 0.08 | 5.3 ± 0.6 |  |  |
| O=[N+]([O-])c1cccc(Nc2nc(NCc3ccccc3)c3ccccc3n2)c1 [II-22] | 5.2 ± 0.5 | 19 ± 2 |  |  |
| Fc1ccc(CNc2nc(Nc3cccc(Cl)c3)nc3ccccc23)cc1 [III-3] | 1.5 ± 0.3 | 5.7 ± 1.3 |  |  |
| Clc1ccc2nc(NCc3ccccc3)nc(NCc3ccccc3)c2c1 [VI-3] | 1.6 ± 0.4 | 6.6 ± 0.9 |  |  |
| COc1ccc(-c2cccc3c(NCc4ccccc4)nc(N4CCOc5ccccc54)nc23)cc1 [VII-11] | 1.1 ± 0.1 | 9 ± 1 |  |  |
| Cc1ccc(-c2nc(NC(C)c3ccccc3)c3ccccc3n2)cc1 (stereo not shown) [I-30] | 7 ± 4 | 17 ± 4 |  |  |
| Clc1cccc(CNc2nc(Nc3cccc(Cl)c3)nc3ccccc23)c1 [III-12] | 5 ± 1.2 | 15 ± 4 |  |  |
| Cc1ccc2c(NCc3ccccc3)nc(NCc3ccccc3)nc2c1 [VI-6] | 2.2 ± 0.4 | 6.1 ± 1.6 |  |  |
| COc1cccc2c(NCc3ccccc3)nc(-n3c(N)nc4cc(C)c(C)cc43)nc12 [XXI-1] |  |  | 2 ± 0.4 | 89 ± 39 |
| c1ccc(CNc2nc(N3CCCc4ccccc43)nc3ccccc23)cc1 [VII-1] | 4.4 ± 1.8 | 10 ± 2 |  |  |
| COc1ccc(-c2nc(NCc3ccc(Cl)cc3)c3ccccc3n2)cc1 [I-22] | 8 ± 2 | 9.3 ± 1 |  |  |
| Cc1ccccc1CNc1nc(Nc2cccc(Cl)c2)nc2ccccc12 [III-6] | 4.2 ± 1.1 | 11 ± 3 |  |  |
| Cc1cccc(CNc2nc(NCc3ccccc3)c3ccccc3n2)c1 [IV-11] | 2.3 ± 0.4 | 2.5 ± 0.5 |  |  |
| Cc1cccc(Nc2nc(NCc3ccccc3)c3ccccc3n2)c1 [II-12] | 1.7 ± 0.5 | 3 ± 0.7 |  |  |
| COc1cccc2c(N3CCOc4ccccc43)nc(N3CCOc4ccccc43)nc12 [XII-11] |  |  | > 30 | 8.1 ± 1.8 |
| COc1ccc(-c2nc(NCc3ccc(F)cc3)c3ccccc3n2)cc1 [I-17] | 7.8 ± 0.4 | 9.8 ± 3 |  |  |

| SMILES | IC50 [1, 3] [µM] | IC50 [2, 4] [µM] | IC50 ([1]; p97 ATPase assay) [µM] | IC50 [2, 5] [µM] |
| --- | --- | --- | --- | --- |
| Cc1ccccc1CNc1nc(NCc2ccccc2)c2ccccc2n1 [IV-6] | 2.7 ± 0.5 | 1.9 ± 0.4 |  |  |
| Fc1ccccc1CNc1nc(NCc2ccccc2)c2ccccc2n1 [IV-8] | 2.9 ± 0.4 | 2.8 ± 0.4 |  |  |
| Clc1cccc2nc(NCc3ccccc3)nc(NCc3ccccc3)c12 [VI-1] | 2.2 ± 0.7 | 16 ± 2 |  |  |
| COc1ccc(-c2nc(NCc3ccccc3)c3ccc(Cl)cc3n2)cc1 [I-34] |  |  | 25 ± 11 | 70 ± 30 |
| O=[N+]([O-])c1ccc(-c2nc(NCc3ccccc3)c3ccccc3n2)cc1 [I-8] | 11 ± 6 | 19 ± 7 |  |  |
| Clc1cccc(CNc2nc(NCc3ccccc3)c3ccccc3n2)c1 [IV-12] | 2.7 ± 0.1 | 2.5 ± 0.4 |  |  |
| COc1cccc2c(NCc3ccccc3)nc(Nc3nc4ccccc4s3)nc12 [XI-5] | 0.5 ± 0.2 | 14 ± 2 |  |  |
| Cc1c(Cl)cccc1Nc1nc(NCc2ccccc2)c2ccccc2n1 [V-5] | 0.7 ± 0.1 | 5.5 ± 1 |  |  |
| c1ccc(CNc2nc(N3CCOc4ccccc43)nc3ccsc23)cc1 [IX] | 0.4 ± 0.1 | 6.4 ± 1 |  |  |
| COc1cccc2c(NCc3ccccc3)nc(N3CCN(C(C)=O)CC3)nc12 [XI-19] |  |  | > 30 | > 20 |
| FC(F)(F)c1cccc(Nc2nc(NCc3ccccc3)c3ccccc3n2)c1 [II-20] |  |  | 50 ± 16 | 21 ± 1 |
| COc1cccc(CNc2nc(Nc3cccc(Cl)c3)nc3ccccc23)c1 [III-15] | 1 ± 0.1 | 9.9 ± 1.6 |  |  |
| Fc1ccc2c(NCc3ccccc3)nc(NCc3ccccc3)nc2c1 [VI-11] | 2.6 ± 0.5 | 6.1 ± 0.8 |  |  |
| Clc1ccc(Nc2nc(NCc3ccccc3)c3ccccc3n2)cc1Cl [II-17] | 8.1 ± 2.6 | 12 ± 2 |  |  |
| COc1cccc2c(NCc3ccccc3)nc(NCC3CCCCC3)nc12 [XI-13] | 5.4 ± 0.9 | 4.2 ± 1 |  |  |
| c1ccc(CNc2nc(-c3ccccc3)nc3ccccc23)cc1 [I-2] | 4.2 ± 2.3 | 12 ± 3 |  |  |
| Fc1ccc(Cl)cc1Nc1nc(NCc2ccccc2)c2ccccc2n1 [II-18] | 13 ± 3 | 13 ± 2 |  |  |
